According to patent US20040191849A1, “Method for identifying fungicides” (priority 2002, published 2004):
Blank lines part the entries; values can stand above or below the compound they belong to.

Legend:
RPI = experiment: Spectrophotometric RPI assay, increase in absorption at 290 nm (KM determination); details: read-out: KM value; substrate of RPI; Lineweaver-Burk plot; 400 ng of RPI; without coupled enzymes
[1] = system: ribose-phosphate isomerase; details: Jung et al., Arch. Biochem. Biophys. 373 (2000) 409-417; cited from earlier work
Erysiphe graminis = experiment: Induction of resistance to Erysiphe graminis in a plant; type: in vivo; details: Hordeum vulgaris; inoculated with Erysiphe graminis 4 days after treatment; 100 = maximum activity, 0 = no activity
Source text: In the case of Erysiphe graminis, the induction of resistance to this fungus, in a plant, was furthermore tested by way of example. To this end, the plant is inoculated with the pathogen 4 days after treatment of the plant with the test substance. The activity of the substance is given as efficacy in %.

Km (RPI): 6.3 mM
Compound: O=C[C@H](O)[C@H](O)[C@H](O)COP(=O)(O)O [D-ribose-5-phosphate]

Compound: phosphate
ribose-phosphate isomerase inhibitor strength [1]: weak

Compound: COc1ccc(S(=O)(=O)N(C)C)cc1CCC(C)NCC1CC2(CCCC2)Oc2ccccc21.O=C(O)/C=C/C(=O)O (stereo not drawn) [Example 2]
resistance induction (efficacy) (Erysiphe graminis): 50%
